Values of other authors as cited in patent US12653950B2, “Predictive biological homeostasis” (priority 2020, dated 2026).

Columns and labels:
NF-κB = details: pro-inflammatory signaling pathway involved in Lyme-induced inflammation
[1] = in vivo
Borrelia burgdorferi = details: one animal study (Pothineni et al. 2020)
[2] = not given; remark: listed apart in the source

## COc1cc(/C=C/C(=O)CC(=O)/C=C/c2ccc(O)c(OC)c2)ccc1O [Curcumin]
NF-κB
  activation of NF-κB: blocking the activation

## Nc1nc2c(ncn2COCCO)c(=O)[nH]1 [Acyclovir]
[1]
  toxic side effects in the kidneys: toxic side effects in the kidneys

## CC1(C)S[C@@H]2[C@H](NC(=O)[C@H](NC(=O)N3CCNC3=O)c3ccccc3)C(=O)N2[C@H]1C(=O)O [azlocillin]
Borrelia burgdorferi
  killing of disease-causing bacteria Borrelia burgdorferi: completely kills off

## O=c1c(O)c(-c2ccc(O)c(O)c2)oc2cc(O)cc(O)c12 [Quercetin]
other
  solubility in water: poorly soluble
[2]
  stability in physiological systems: unstable
